This assay deals with SK-BR-3. Kind of assay: Inhibition of oncogene product p185 erbB-2 from human breast cancer cells(SK-BR-3 cells).

On to `COC1=C2C[C@@H](C)C[C@H](OC)[C@H](O)[C@@H](C)/C=C(\C)[C@H](OC(N)=O)[C@@H](OC)/C=C\C=C(/C)C(=O)NC(=C(NC3CC3)C1=O)C2=O`, for which the IC50 – broadly, the concentration that gives 50% inhibition – is above 3250 nM.
With `CO[C@H]1/C=C\C=C(/C)C(=O)NC2=CC(=O)C(NCCNC(C)=O)=C(C[C@@H](C)C[C@H](OC)[C@H](O)[C@@H](C)/C=C(\C)[C@@H]1OC(N)=O)C2=O`, the IC50 amounted to 1270 nM.
As to `CO[C@H]1/C=C\C=C(/C)C(=O)NC2=CC(=O)C(NC3CN4CCC3CC4)=C(C[C@@H](C)C[C@H](OC)[C@H](O)[C@@H](C)/C=C(\C)[C@@H]1OC(N)=O)C2=O` (some centres undefined), the IC50 was determined as 1370 nM.
The result for `CO[C@H]1C[C@H](C)CC2=C3N=C(/N=C(\N)N4CCC4)N=C3C=C(NC(=O)/C(C)=C/CC[C@H](OC)[C@@H](OC(N)=O)/C(C)=C/[C@H](C)[C@H]1O)C2=O` reads 980 nM; that for `CO[C@H]1/C=C\C=C(/C)C(=O)NC2=CC3=NC(/N=C(\N)N4CCC(C)CC4)=NC3=C(C[C@@H](C)C[C@H](OC)[C@H](O)[C@@H](C)/C=C(\C)[C@@H]1OC(N)=O)C2=O`, 150 nM; that for `CO[C@H]1C[C@H](C)CC2=C(N3CC(CO)C3)C(=O)C=C(NC(=O)/C(C)=C/CC[C@H](OC)[C@@H](OC(N)=O)/C(C)=C/[C@H](C)[C@H]1O)C2=O`, 1300 nM.
Regarding `COC1=C2C[C@@H](C)C[C@H](OC)[C@H](O)[C@@H](C)/C=C(\C)[C@H](OC(N)=O)[C@@H](OC)/C=C\C=C(/C)C(=O)NC(=C(Br)C1=O)C2=O`, the IC50 was above 3130 nM.
Take `CO[C@H]1/C=C\C=C(/C)C(=O)NC2=CC(=O)C(NC[C@@H](C)O)=C(C[C@@H](C)C[C@H](OC)[C@H](O)[C@@H](C)/C=C(\C)[C@@H]1OC(N)=O)C2=O`: the IC50 was found to be 260 nM.
Take `COc1c(O)cc2c(O)c1C[C@@H](C)C[C@H](OC)[C@H](O)[C@@H](C)/C=C(\C)[C@H](OC(N)=O)[C@@H](OC)/C=C\C=C(/C)C(=O)N2`: the IC50 was found to be 100 nM.
The result for `CO[C@H]1/C=C\C=C(/C)C(=O)NC2=CC(=O)C(NCCc3ccco3)=C(C[C@@H](C)C[C@H](OC)[C@H](O)[C@@H](C)/C=C(\C)[C@@H]1OC(N)=O)C2=O` reads 320 nM.
The result for `CO[C@H]1/C=C\C=C(/C)C(=O)NC2=CC(=O)C(N[C@H](C)CO)=C(C[C@@H](C)C[C@H](OC)[C@H](O)[C@@H](C)/C=C(\C)[C@@H]1OC(N)=O)C2=O` reads 330 nM.
Then `COCCNC1=C2C[C@@H](C)C[C@H](OC)[C@H](O)[C@@H](C)/C=C(\C)[C@H](OC(N)=O)[C@@H](OC)/C=C\C=C(/C)C(=O)NC(=CC1=O)C2=O`, with 66 nM; and `COC1=C2C[C@@H](C)C[C@H](OC)[C@H](O)[C@@H](C)/C=C(\C)[C@H](OC(N)=O)[C@@H](OC)/C=C\C=C(/C)C3=NC(=C(C1=O)C(NC(C)(C)C)O3)C2=O` (some centres undefined), with above 3100 nM; and `CO[C@H]1C[C@H](C)CC2=C(NCCC(=O)O)C(=O)C=C(NC(=O)/C(C)=C/CC[C@H](OC)[C@@H](OC(N)=O)/C(C)=C/[C@H](C)[C@H]1O)C2=O`, with above 3200 nM.
The compound `CO[C@H]1/C=C\C=C(/C)C(=O)NC2=CC(=O)C(NCCCO)=C(C[C@@H](C)C[C@H](OC)[C@H](O)[C@@H](C)/C=C(\C)[C@@H]1OC(N)=O)C2=O` came in with an IC50 of 130 nM.
`COC1=C2C[C@@H](C)C[C@H](OC)[C@H](O)[C@@H](C)/C=C(\C)[C@H](OC(N)=O)[C@@H](OC)/C=C\C=C(/C)C(=O)NC(=C(N3C=CC=CC=C3)C1=O)C2=O` registered a half-inhibitory concentration (IC50) of 1500 nM.
`CO[C@H]1C[C@H](C)CC2=C(NC(C)C)C(=O)C=C(NC(=O)/C(C)=C/CC[C@H](OC)[C@@H](OC(N)=O)/C(C)=C/[C@H](C)[C@H]1O)C2=O` came in with an IC50 of 470 nM.
Then `CNC1=C2C[C@@H](C)C[C@H](OC)[C@H](O)[C@@H](C)/C=C(\C)[C@H](OC(N)=O)[C@@H](OC)/C=C\C=C(/C)C(=O)NC(=CC1=O)C2=O`, with 89 nM; and `COC1=C2C[C@@H](C)C[C@H](OC)[C@H](O)[C@@H](C)/C=C(\C)[C@H](OC(N)=O)[C@@H](OC)/C=C\C=C(/C)C(=O)NC(=C(/C=N/N3CCN(C)CC3)C1=O)C2=O`, with above 2900 nM; and `CO[C@H]1/C=C\C=C(/C)C(=O)NC2=CC(=O)C(NCC(O)CO)=C(C[C@@H](C)C[C@H](OC)[C@H](O)[C@@H](C)/C=C(\C)[C@@H]1OC(N)=O)C2=O` (some centres undefined), with 970 nM.
As to `CO[C@H]1/C=C\C=C(/C)C(=O)NC2=CC(=O)C(NCc3ccccc3)=C(C[C@@H](C)C[C@H](OC)[C@H](O)[C@@H](C)/C=C(\C)[C@@H]1OC(N)=O)C2=O`, the IC50 amounted to 790 nM.
Then `CO[C@H]1/C=C\C=C(/C)C(=O)NC2=CC3=NC(/N=C(\N)N4CCOCC4)=NC3=C(C[C@@H](C)C[C@H](OC)[C@H](O)[C@@H](C)/C=C(\C)[C@@H]1OC(N)=O)C2=O`, with 2030 nM; and `COC1=C2C[C@@H](C)C[C@H](OC)[C@H](O)[C@@H](C)/C=C(\C)[C@H](OC(N)=O)[C@@H](OC)CC/C=C(\C)C(=O)NC(=CC1=O)C2=O`, with 230 nM.
Then `CO[C@H]1/C=C\C=C(/C)C(=O)NC2=CC(=O)C(NCCO)=C(C[C@@H](C)C[C@H](OC)[C@H](O)[C@@H](C)/C=C(\C)[C@@H]1OC(N)=O)C2=O`, with 100 nM; and `CO[C@H]1/C=C\C=C(/C)C(=O)NC2=CC(=O)C(NCCS(=O)(=O)O)=C(C[C@@H](C)C[C@H](OC)[C@H](O)[C@@H](C)/C=C(\C)[C@@H]1OC(N)=O)C2=O`, with above 2700 nM; and `COC(CNC1=C2C[C@@H](C)C[C@H](OC)[C@H](O)[C@@H](C)/C=C(\C)[C@H](OC(N)=O)[C@@H](OC)/C=C\C=C(/C)C(=O)NC(=CC1=O)C2=O)OC`, with 710 nM.
Compound `CO[C@H]1/C=C\C=C(/C)C(=O)NC2=CC(=O)C(NCCC(=O)O)=C(C[C@@H](C)C[C@H](OC)[C@H](O)[C@@H](C)/C=C(\C)[C@@H]1OC(N)=O)C2=O` came in with an IC50 of 190 nM.
The result for `CO[C@H]1C[C@H](C)CC2=C(NCCSC)C(=O)C=C(NC(=O)/C(C)=C/CC[C@H](OC)[C@@H](OC(N)=O)/C(C)=C/[C@H](C)[C@H]1O)C2=O` reads 140 nM; that for `CO[C@H]1/C=C\C=C(/C)C(=O)NC2=CC(=O)C(NC3CC3)=C(C[C@@H](C)C[C@H](OC)[C@H](O)[C@@H](C)/C=C(\C)[C@@H]1OC(N)=O)C2=O`, 43 nM; that for `CO[C@H]1/C=C\C=C(/C)C(=O)NC2=CC(=O)C(N=C(N(C)C)N(C)C)=C(C[C@@H](C)C[C@H](OC)[C@H](O)[C@@H](C)/C=C(\C)[C@@H]1OC(N)=O)C2=O`, 170 nM.
As to `CO[C@H]1/C=C\C=C(/C)C(=O)NC2=CC(=O)C(NCCSC)=C(C[C@@H](C)C[C@H](OC)[C@H](O)[C@@H](C)/C=C(\C)[C@@H]1OC(N)=O)C2=O`, the IC50 came out at 98 nM.
The result for `CO[C@H]1/C=C\C=C(/C)C(=O)NC2=CC(=O)C(Nc3nccs3)=C(C[C@@H](C)C[C@H](OC)[C@H](O)[C@@H](C)/C=C(\C)[C@@H]1OC(N)=O)C2=O` reads 220 nM.
As to `CO[C@H]1C[C@H](C)CC2=C(N3CC(N)C3)C(=O)C=C(NC(=O)/C(C)=C/CC[C@H](OC)[C@@H](OC(N)=O)/C(C)=C/[C@H](C)[C@H]1O)C2=O`, half-maximal inhibition (IC50) was put at 66 nM.
With `CO[C@H]1/C=C\C=C(/C)C(=O)Nc2cc3nc4ccccc4oc-3c(c2=O)C[C@@H](C)C[C@H](OC)[C@H](O)[C@@H](C)/C=C(\C)[C@@H]1OC(N)=O`, the IC50 worked out at 420 nM.
`CO[C@H]1/C=C\C=C(/C)C(=O)NC2=CC(=O)C(N3CC(O)C3)=C(C[C@@H](C)C[C@H](OC)[C@H](O)[C@@H](C)/C=C(\C)[C@@H]1OC(N)=O)C2=O` displayed an IC50 of 50 nM.
Then `CO[C@H]1/C=C\C=C(/C)C(=O)NC2=CC(=O)C(O)=C(C[C@@H](C)C[C@H](OC)[C@H](O)[C@@H](C)/C=C(\C)[C@@H]1OC(N)=O)C2=O`, with above 3700 nM; and `CO[C@H]1/C=C\C=C(/C)C(=O)NC2=CC3=NCCCNC3=C(C[C@@H](C)C[C@H](OC)[C@H](O)[C@@H](C)/C=C(\C)[C@@H]1OC(N)=O)C2=O`, with 260 nM.
As for `CO[C@H]1/C=C\C=C(/C)C(=O)Nc2cc3nc4ccccc4nc3c(c2O)C[C@@H](C)C[C@H](OC)[C@H](O)[C@@H](C)/C=C(\C)[C@@H]1OC(N)=O`, the IC50 is above 3200 nM.
Then `CO[C@H]1/C=C\C=C(/C)C(=O)NC2=CC(=O)C(NCCCI)=C(C[C@@H](C)C[C@H](OC)[C@H](O)[C@@H](C)/C=C(\C)[C@@H]1OC(N)=O)C2=O`, with 110 nM; and `COC1c2cc(O)cc(c2O)NC(=O)/C(C)=C/C=C\[C@H](OC)[C@@H](OC(N)=O)/C(C)=C/[C@H](C)[C@@H](OC)[C@@H](OC)C[C@@H]1C` (some centres undefined), with 520 nM.
The result for `CO[C@H]1/C=C\C=C(/C)C(=O)NC2=CC(=O)C(NCC3CCNCC3)=C(C[C@@H](C)C[C@H](OC)[C@H](O)[C@@H](C)/C=C(\C)[C@@H]1OC(N)=O)C2=O` reads above 3100 nM; that for `COC1=C2C[C@@H](C)C[C@H](OC)[C@H](O)[C@@H](C)/C=C(\C)[C@H](OC(N)=O)[C@@H](OC)/C=C\C=C(/C)C(=O)N3CN(C(C)(C)C)CC(=C3C2=O)C1=O`, above 3040 nM.
Compound `CO[C@H]1/C=C\C=C(/C)C(=O)NC2=C(NCCCN(C)C)C(=O)C(NCCCN(C)C)=C(C[C@@H](C)C[C@H](OC)[C@H](O)[C@@H](C)/C=C(\C)[C@@H]1OC(N)=O)C2=O` returned an IC50 above 4100 nM.
In the case of `CO[C@H]1/C=C\C=C(/C)C(=O)NC2=CC(=O)C(N3CCCC3C(=O)O)=C(C[C@@H](C)C[C@H](OC)[C@H](O)[C@@H](C)/C=C(\C)[C@@H]1OC(N)=O)C2=O` (some centres undefined), the midpoint of inhibition, the IC50, lay at 790 nM.
Regarding `CO[C@H]1/C=C\C=C(/C)C(=O)NC2=CC(=O)C(NC(C)(C)C)=C(C[C@@H](C)C[C@H](OC)[C@H](O)[C@@H](C)/C=C(\C)[C@@H]1OC(N)=O)C2=O`, 200 nM corresponded to half-maximal inhibition (IC50).
Then `CO[C@H]1/C=C\C=C(/C)C(=O)NC2=CC(=O)C(NCCCN)=C(C[C@@H](C)C[C@H](OC)[C@H](O)[C@@H](C)/C=C(\C)[C@@H]1OC(N)=O)C2=O`, with 80 nM; and `CO[C@H]1/C=C\C=C(/C)C(=O)NC2=CC(=O)C(NCCCN(C)C)=C(C[C@@H](C)C[C@H](OC)[C@H](O)[C@@H](C)/C=C(\C)[C@@H]1OC(N)=O)C2=O`, with 140 nM.
The result for `CO[C@H]1/C=C\C=C(/C)C(=O)NC2=CC(=O)C(NCC(N)=O)=C(C[C@@H](C)C[C@H](OC)[C@H](O)[C@@H](C)/C=C(\C)[C@@H]1OC(N)=O)C2=O` reads 1990 nM; that for `COC1c2cc(O)cc(c2O)NC(=O)/C(C)=C/C=C\[C@H](OC)[C@@H](OC(N)=O)/C(C)=C/[C@H](C)[C@@H](O)[C@@H](OC)C[C@@H]1C` (some centres undefined), 1100 nM.

These data come from ChEMBL document CHEMBL1128559, “Inhibition of the oncogene product p185erbB-2 in vitro and in vivo by geldanamycin and dihydrogeldanamycin derivatives” (J Med Chem, 1995).
